# Reference: ChEMBL document CHEMBL1201862, “PubChem BioAssay data set” (2004)
#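 Briefly, cells in 96-well plates were exposed to five compound concentrations for 48 h, and endpoints were estimated by linear interpolation. The concentration for 50% growth inhibition is given as GI50.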 Activity calls are given as the source filed them. No stated cut-off is given here; in the data, active = GI50 up to about 1.1 µM and inactive = higher.
# What was measured:
# Assay in all cases: NCI anticancer screen, dose series, 48 h
# 786-0 = tested on: 786-0
# A549 = tested on: A549
# ACHN = tested on: ACHN
# BT-549 = tested on: BT-549
# CAKI-1 = tested on: CAKI-1
# CCRF-CEM = tested on: CCRF-CEM
# COLO 205 = tested on: COLO 205
# DU-145 = tested on: DU-145
# EKVX = tested on: EKVX
# HCC 2998 = tested on: HCC 2998
# HCT-116 = tested on: HCT-116
# HCT-15 = tested on: HCT-15
# HL-60 = tested on: HL-60
# HOP-62 = tested on: HOP-62
# HOP-92 = tested on: HOP-92
# HT-29 = tested on: HT-29
# Hs-578T = tested on: Hs-578T
# IGROV-1 = tested on: IGROV-1
# K562 = tested on: K562
# KM12 = tested on: KM12
# LOX IMVI = tested on: LOX IMVI
# M14 = tested on: M14
# MCF7 = tested on: MCF7
# MDA-MB-231 = tested on: MDA-MB-231
# MDA-MB-435 = tested on: MDA-MB-435
# MDA-N = tested on: MDA-N
# MOLT-4 = tested on: MOLT-4
# NCI-H226 = tested on: NCI-H226
# NCI-H23 = tested on: NCI-H23
# NCI-H460 = tested on: NCI-H460
# NCI-H522 = tested on: NCI-H522
# NCI/ADR-RES = tested on: NCI/ADR-RES
# OVCAR-3 = tested on: OVCAR-3
# OVCAR-4 = tested on: OVCAR-4
# OVCAR-5 = tested on: OVCAR-5
# OVCAR-8 = tested on: OVCAR-8
# PC-3 = tested on: PC-3
# RPMI-8226 = tested on: RPMI-8226
# RXF 393 = tested on: RXF 393
# SF-268 = tested on: SF-268
# SF-295 = tested on: SF-295
# SF-539 = tested on: SF-539
# SK-MEL-28 = tested on: SK-MEL-28
# SK-MEL-2 = tested on: SK-MEL-2
# SK-MEL-5 = tested on: SK-MEL-5
# SK-OV-3 = tested on: SK-OV-3
# SN12C = tested on: SN12C
# SNB-19 = tested on: SNB-19
# SNB-75 = tested on: SNB-75
# SR = tested on: SR
# SW-620 = tested on: SW-620
# T47D = tested on: T47D
# TK-10 = tested on: TK-10
# U-251 = tested on: U-251
# UACC-257 = tested on: UACC-257
# UACC-62 = tested on: UACC-62
# A498 = tested on: A498
# Malme-3M = tested on: Malme-3M
# UO-31 = tested on: UO-31
structure (smiles),measurement,setting,value
Cc1nn(C(=O)c2ccc(Cl)cc2)c2c1C(c1ccco1)SC(=N)N2 (stereo not drawn),GI50,786-0,> 10 µM (inactive)
same,GI50,A549,> 10 µM (inactive)
same,GI50,ACHN,> 10 µM (inactive)
same,GI50,BT-549,> 10 µM (inactive)
same,GI50,CAKI-1,> 10 µM (inactive)
same,GI50,CCRF-CEM,> 10 µM (inactive)
same,GI50,COLO 205,> 10 µM (inactive)
same,GI50,DU-145,> 10 µM (inactive)
same,GI50,EKVX,> 10 µM (inactive)
same,GI50,HCC 2998,> 10 µM (inactive)
same,GI50,HCT-116,> 10 µM (inactive)
same,GI50,HCT-15,> 10 µM
same,GI50,HL-60,> 10 µM (inactive)
same,GI50,HOP-62,> 10 µM (inactive)
same,GI50,HOP-92,> 10 µM (inactive)
same,GI50,HT-29,> 10 µM (inactive)
same,GI50,Hs-578T,> 10 µM (inactive)
same,GI50,IGROV-1,> 10 µM (inactive)
same,GI50,K562,> 10 µM (inactive)
same,GI50,KM12,> 10 µM (inactive)
same,GI50,LOX IMVI,> 10 µM (inactive)
same,GI50,M14,> 10 µM (inactive)
same,GI50,MCF7,> 10 µM (inactive)
same,GI50,MDA-MB-231,> 10 µM (inactive)
same,GI50,MDA-MB-435,> 10 µM (inactive)
same,GI50,MDA-N,> 10 µM (inactive)
same,GI50,MOLT-4,> 10 µM (inactive)
same,GI50,NCI-H226,> 10 µM (inactive)
same,GI50,NCI-H23,> 10 µM (inactive)
same,GI50,NCI-H460,> 10 µM (inactive)
same,GI50,NCI-H522,> 10 µM (inactive)
same,GI50,NCI/ADR-RES,> 10 µM (inactive)
same,GI50,OVCAR-3,> 10 µM (inactive)
same,GI50,OVCAR-4,> 10 µM (inactive)
same,GI50,OVCAR-5,> 10 µM (inactive)
same,GI50,OVCAR-8,> 10 µM (inactive)
same,GI50,PC-3,> 10 µM (inactive)
same,GI50,RPMI-8226,> 10 µM (inactive)
same,GI50,RXF 393,> 10 µM (inactive)
same,GI50,SF-268,> 10 µM (inactive)
same,GI50,SF-295,> 10 µM (inactive)
same,GI50,SF-539,> 10 µM (inactive)
same,GI50,SK-MEL-28,> 10 µM (inactive)
same,GI50,SK-MEL-2,> 10 µM (inactive)
same,GI50,SK-MEL-5,> 10 µM (inactive)
same,GI50,SK-OV-3,> 10 µM (inactive)
same,GI50,SN12C,> 10 µM (inactive)
same,GI50,SNB-19,> 10 µM (inactive)
same,GI50,SNB-75,> 10 µM (inactive)
same,GI50,SR,> 10 µM (inactive)
same,GI50,SW-620,> 10 µM (inactive)
same,GI50,T47D,> 10 µM (inactive)
same,GI50,TK-10,> 10 µM (inactive)
same,GI50,U-251,> 10 µM (inactive)
same,GI50,UACC-257,> 10 µM (inactive)
same,GI50,UACC-62,> 10 µM (inactive)
CCCN(CCC)C1CCc2c(ccc3cc[nH]c23)C1 (stereo not drawn),GI50,786-0,> 100 µM (inactive)
same,GI50,A498,> 100 µM (inactive)
same,GI50,A549,> 100 µM (inactive)
same,GI50,ACHN,> 100 µM (inactive)
same,GI50,BT-549,> 100 µM (inactive)
same,GI50,CAKI-1,> 100 µM (inactive)
same,GI50,CCRF-CEM,26.3 µM (inactive)
same,GI50,COLO 205,29.8 µM (inactive)
same,GI50,DU-145,> 100 µM (inactive)
same,GI50,EKVX,> 100 µM (inactive)
same,GI50,HCC 2998,23 µM (inactive)
same,GI50,HCT-116,66.8 µM (inactive)
same,GI50,HCT-15,48.1 µM
same,GI50,HOP-62,> 100 µM (inactive)
same,GI50,HOP-92,27.7 µM (inactive)
same,GI50,HT-29,33.5 µM (inactive)
same,GI50,Hs-578T,> 100 µM (inactive)
same,GI50,IGROV-1,62.7 µM (inactive)
same,GI50,K562,30.5 µM (inactive)
same,GI50,KM12,60.4 µM (inactive)
same,GI50,M14,17.7 µM (inactive)
same,GI50,MCF7,77.3 µM (inactive)
same,GI50,MDA-MB-231,41.3 µM (inactive)
same,GI50,MDA-MB-435,89.3 µM (inactive)
same,GI50,MDA-N,> 100 µM (inactive)
same,GI50,MOLT-4,25.2 µM (inactive)
same,GI50,Malme-3M,58.1 µM (inactive)
same,GI50,NCI-H226,> 100 µM (inactive)
same,GI50,NCI-H23,> 100 µM (inactive)
same,GI50,NCI-H460,72.3 µM (inactive)
same,GI50,NCI-H522,> 100 µM (inactive)
same,GI50,NCI/ADR-RES,> 100 µM (inactive)
same,GI50,OVCAR-3,61.4 µM (inactive)
same,GI50,OVCAR-4,> 100 µM (inactive)
same,GI50,OVCAR-5,> 100 µM (inactive)
same,GI50,OVCAR-8,> 100 µM (inactive)
same,GI50,PC-3,35 µM (inactive)
same,GI50,RPMI-8226,41 µM (inactive)
same,GI50,RXF 393,> 100 µM (inactive)
same,GI50,SF-268,94.2 µM (inactive)
same,GI50,SF-295,> 100 µM (inactive)
same,GI50,SF-539,> 100 µM (inactive)
same,GI50,SK-MEL-28,31.9 µM (inactive)
same,GI50,SK-MEL-2,> 100 µM (inactive)
same,GI50,SK-MEL-5,20.7 µM (inactive)
same,GI50,SK-OV-3,> 100 µM (inactive)
same,GI50,SN12C,> 100 µM (inactive)
same,GI50,SNB-19,> 100 µM (inactive)
same,GI50,SNB-75,25.6 µM (inactive)
same,GI50,SR,22.9 µM (inactive)
same,GI50,SW-620,> 100 µM (inactive)
same,GI50,T47D,> 100 µM (inactive)
same,GI50,TK-10,> 100 µM (inactive)
same,GI50,U-251,> 100 µM (inactive)
same,GI50,UACC-257,26.7 µM (inactive)
same,GI50,UACC-62,50.9 µM (inactive)
same,GI50,UO-31,49 µM (inactive)
